The values below come from ChEMBL document CHEMBL3045614, “Antifeedant activity of vicolides from Pentanema indicum” (1999).

Holding throughout (type): functional
The test system of assay [1] is Olepa ricini. Kind of assay: Antifeedant activity against moulted fifth larval stage of Olepa ricini infested on castor leaves assessed as feeding deterrence index at 0.2 ppm by leaf disk assay relative to control.
Assay [2] relates to Euproctis fraterna. In words: Antifeedant activity against moulted fifth larval stage of Euproctis fraterna infested castor leaves assessed as feeding deterrence index at 0.2 ppm by leaf disk assay relative to control.
The subject of assay [3] is Euproctis fraterna. In words: Antifeedant activity against moulted fifth larval stage of Euproctis fraterna infested castor leaves assessed as feeding deterrence index at 2 ppm by leaf disk assay relative to control.
The subject of assay [4] is Olepa ricini. Kind of assay: Antifeedant activity against moulted fifth larval stage of Olepa ricini infested on castor leaves assessed as feeding deterrence index at 200 ppm by leaf disk assay relative to control.
Assay [5] relates to Euproctis fraterna. In words: Antifeedant activity against moulted fifth larval stage of Euproctis fraterna infested castor leaves assessed as feeding deterrence index at 200 ppm by leaf disk assay relative to control.
Assay [6] has as its system Olepa ricini. In words: Antifeedant activity against moulted fifth larval stage of Olepa ricini infested on castor leaves assessed as feeding deterrence index at 2 ppm by leaf disk assay relative to control.
The test system of assay [7] is Olepa ricini. Kind of assay: Antifeedant activity against moulted fifth larval stage of Olepa ricini infested on castor leaves assessed as feeding deterrence index at 20 ppm by leaf disk assay relative to control.
The test system of assay [8] is Olepa ricini. In words: Antifeedant activity against moulted fifth larval stage of Olepa ricini infested on castor leaves assessed as feeding deterrence index at 2000 ppm by leaf disk assay relative to control.
Assay [9] has as its system Euproctis fraterna. In words: Antifeedant activity against moulted fifth larval stage of Euproctis fraterna infested castor leaves assessed as feeding deterrence index at 2000 ppm by leaf disk assay relative to control.
For assay [10], the system named is Euproctis fraterna. Kind of assay: Antifeedant activity against moulted fifth larval stage of Euproctis fraterna infested castor leaves assessed as feeding deterrence index at 20 ppm by leaf disk assay relative to control.

In the case of `C=C1C(=O)O[C@@H]2C/C(C)=C\C(=O)C[C@@H](C)[C@@H](OC(=O)[C@]3(C)O[C@@H]3C)[C@H](O)[C@@H]12` [VICOLIDE D], the FDI in [1] amounted to 10.61%; in [2] it was 10.99%; in assay [3], 14.44%; in assay [4], 40.93%; in assay [5] it was 20.46%; in [6] it was 17.74%. Further, the FDI worked out at 27.62% in assay [7], 46.88% in assay [8], 35.68% in assay [9] and 15.37% in assay [10].
For `C=C1C(=O)O[C@@H]2C/C(C)=C\C(=O)C[C@@H](C)[C@@H](OC(=O)/C(C)=C\C)[C@H](O)[C@@H]12` [VICOLIDE B], the FDI in assay [1] is listed as 12.83%; in assay [2], 12.17%; in assay [3], 13.98%; in [4], 40.93%; in assay [5], 22.54%; in [6], 21.06%. The FDI in assay [7] turned out to be 24.36%; in assay [8] it was 48.68%; in assay [9] it was 57.03%; in assay [10] it was 20.28%.
Consider `C=C1C(=O)O[C@H]2[C@H]1[C@@H](OC(=O)[C@@H](C)CC)[C@H](OC(C)=O)[C@H](C)C[C@@H](O)[C@H]1O[C@@]1(C)[C@@H]2O` [VICOLIDE C], for which the FDI is listed as 4.44% in assay [1]; 13.98% in assay [2]; 18.6% in assay [3]; 30.59% in [4]; 26.76% in [5]; 9.61% in assay [6]. The FDI in [7] is on record as 17.74%; in assay [8] it was 38.26%; in assay [9], 26.56%; in assay [10], 22.37%.
Take `C=C1C(=O)O[C@H]2[C@H]1[C@@H](O)[C@H](OC(=O)/C(C)=C\C)[C@H](C)[C@@H]1C(=O)C=C(C)[C@H]21` [VICOLIDE A]: the FDI is recorded as 6.17% in assay [1]; 8.43% in [2]; 8.99% in assay [3]; 29.66% in assay [4]; 15.33% in assay [5]; 13.35% in assay [6]. For the same compound, the FDI in assay [7] stood at 22.28%; in [8], 42.86%; in [9] it was 15.06%; in assay [10], 15.33%.
